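Compound exposure: 48 hours, 5 concentrations, 96-well plates. GI50: concentration for 50% inhibition of growth.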 Active and inactive are the calls of the source. Cut-off read from the data, not from the text of the source: active = GI50 up to about 1.1 µM and inactive = higher.
Key:
Assay in all cases: NCI anticancer screen, dose series, 48 h
CCRF-CEM = test system: CCRF-CEM
HCC 2998 = test system: HCC 2998
HL-60 = test system: HL-60
Malme-3M = test system: Malme-3M
NCI-H226 = test system: NCI-H226
OVCAR-3 = test system: OVCAR-3
RXF 393 = test system: RXF 393
SF-539 = test system: SF-539
SK-MEL-28 = test system: SK-MEL-28
SK-MEL-5 = test system: SK-MEL-5
SK-OV-3 = test system: SK-OV-3
TK-10 = test system: TK-10
UO-31 = test system: UO-31

Measured: GI50

CC1(c2ccc(F)cc2)C2C(=O)NC(=O)C1C(=O)NC2=O (stereo unspecified)
inactive: CCRF-CEM > 100 µM | HCC 2998 > 100 µM | HL-60 > 100 µM | Malme-3M > 100 µM | NCI-H226 > 100 µM | OVCAR-3 > 100 µM | RXF 393 > 100 µM | SF-539 > 100 µM | SK-MEL-28 > 100 µM | SK-MEL-5 > 100 µM | SK-OV-3 > 100 µM | TK-10 > 100 µM | UO-31 > 100 µM

CC1=NN(c2ccccc2)C(=O)C1=C1SCCS1
inactive: CCRF-CEM 29.2 µM | HCC 2998 > 87.1 µM | HL-60 > 40 µM | Malme-3M > 67.6 µM | NCI-H226 > 64 µM | OVCAR-3 34.9 µM | RXF 393 37 µM | SF-539 > 100 µM | SK-MEL-28 > 100 µM | SK-MEL-5 59.3 µM | SK-OV-3 > 100 µM | TK-10 > 55.1 µM | UO-31 37.9 µM

CN(C)CCNC(=O)c1cccc2c1nc(-c1ccncc1)c1ccccc12
inactive: CCRF-CEM 2.4 µM | HCC 2998 2.6 µM | HL-60 1.36 µM | NCI-H226 1.95 µM | OVCAR-3 5.35 µM | RXF 393 2.3 µM | SF-539 2.03 µM | SK-MEL-28 5.15 µM | SK-MEL-5 1.81 µM | SK-OV-3 5.71 µM | TK-10 2.21 µM | UO-31 1.63 µM

CCOc1ccc2c(c1)[n+]([O-])c(S(=O)(=O)c1ccc(C)cc1)c(N)[n+]2[O-]
inactive: CCRF-CEM > 100 µM | HCC 2998 > 100 µM | HL-60 > 100 µM | Malme-3M > 100 µM | NCI-H226 > 100 µM | OVCAR-3 > 100 µM | SF-539 > 100 µM | SK-MEL-28 > 100 µM | SK-MEL-5 > 100 µM | SK-OV-3 > 100 µM | TK-10 > 100 µM | UO-31 > 100 µM

C#CCN(N=O)C(=O)NC(CCCCNC(=O)OCc1ccccc1)C(=O)OCc1ccccc1 (stereo unspecified)
inactive: CCRF-CEM 17.5 µM | HCC 2998 31.5 µM | HL-60 17.3 µM | Malme-3M 28.2 µM | OVCAR-3 36.1 µM | RXF 393 46.7 µM | SK-MEL-28 26.1 µM | SK-OV-3 > 100 µM | TK-10 27.7 µM | UO-31 30.8 µM

O=C(O)CNS(=O)(=O)c1ccc(NCc2ccccc2)cc1
inactive: CCRF-CEM > 100 µM | HCC 2998 > 100 µM | Malme-3M > 100 µM | NCI-H226 > 100 µM | RXF 393 > 100 µM | SF-539 > 100 µM | SK-MEL-28 > 100 µM | SK-MEL-5 > 100 µM | SK-OV-3 > 100 µM | TK-10 > 100 µM | UO-31 > 100 µM
